One data set addresses T1, human H3 receptor (Homo sapiens, UniProt Q9Y5N1).
T1 construct: expressed in transfected cells
As to the kind of experiment: Human H3 radioligand binding ([3H]-N-alpha-methylhistamine, CHO cell membranes, SPA). The settings on record: Table B, binding constant as letter class. The essentials: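 CHO cell membranes expressing human H3 (10 μg protein/well) incubated 4 h at room temperature, in the dark, with ~1 nM [3H]-N-alpha-methylhistamine, compounds (0.01 nM-30 μM) and SPA beads in 50 mM Tris HCl pH 7.4, 5 mM MgCl2, 0.1% BSA. Non-specific binding defined with 10 μM clobenpropit.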

Data set [1] deals with T2, rat histamine H3 receptor (Rattus norvegicus, UniProt Q9QYN8).
T2 construct: encoding the entire 445-amino-acid rat histamine H3 receptor; expressed in transfected cells
As to the kind of experiment: Rat H3 radioligand binding ([3H]-N-alpha-methylhistamine, CHO-A3 cell membranes, SPA). The settings on record: Table B, binding constant as letter class; read-out: rat H3 Ki. Put shortly:
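Membranes from CHO-A3 cells stably expressing rat H3 (10 μg protein) incubated 4 h at room temperature in 50 mM Tris-HCl pH 7.4, 5 mM MgCl2, 0.1% BSA with ~1 nM [3H]-N-alpha-methylhistamine and compound (0.01 nM-30 μM). Bound radioligand read by scintillation proximity; nonspecific binding with 10 μM clobenpropit.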

T1 sequence (Q9Y5N1 whole entry): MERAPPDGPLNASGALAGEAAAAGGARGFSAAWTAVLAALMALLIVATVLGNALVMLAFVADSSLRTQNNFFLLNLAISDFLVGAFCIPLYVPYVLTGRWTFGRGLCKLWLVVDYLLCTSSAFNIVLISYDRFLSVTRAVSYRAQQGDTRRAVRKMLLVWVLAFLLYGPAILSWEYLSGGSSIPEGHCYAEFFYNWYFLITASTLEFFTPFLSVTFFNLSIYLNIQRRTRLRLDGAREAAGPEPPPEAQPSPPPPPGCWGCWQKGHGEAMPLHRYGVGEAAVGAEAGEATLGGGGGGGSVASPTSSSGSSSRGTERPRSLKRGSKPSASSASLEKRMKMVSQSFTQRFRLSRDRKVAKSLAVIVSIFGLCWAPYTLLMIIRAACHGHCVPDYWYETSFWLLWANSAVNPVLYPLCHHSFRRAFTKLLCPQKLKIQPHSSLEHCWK
T2 sequence (Q9QYN8 whole entry): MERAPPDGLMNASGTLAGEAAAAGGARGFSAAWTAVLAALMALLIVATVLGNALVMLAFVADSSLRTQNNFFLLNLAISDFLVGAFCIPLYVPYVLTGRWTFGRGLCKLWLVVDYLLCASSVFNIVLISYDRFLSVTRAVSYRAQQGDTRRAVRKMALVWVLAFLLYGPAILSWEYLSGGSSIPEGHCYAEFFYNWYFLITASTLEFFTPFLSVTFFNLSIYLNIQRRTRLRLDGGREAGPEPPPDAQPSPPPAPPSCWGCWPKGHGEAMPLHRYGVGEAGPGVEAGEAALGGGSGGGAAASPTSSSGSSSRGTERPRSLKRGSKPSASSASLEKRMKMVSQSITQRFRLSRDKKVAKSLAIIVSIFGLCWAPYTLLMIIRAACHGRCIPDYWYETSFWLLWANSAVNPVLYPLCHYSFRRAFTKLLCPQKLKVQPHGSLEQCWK

Consider `CC(C)N1CCC(Oc2ccc(-c3ccc(=O)[nH]n3)cn2)CC1` [Example 142, 6-[6-(1-Isopropyl-piperidin-4-yloxy)-pyridin-3-yl]-2H-pyridazin-3-one], for which the melting point was 195 to 197 °C. The molecule further gave a Ki on human H3 receptor of 0.1 to 100 nM. The Ki in data set [1] fell in the range of 101 to 500 nM.

In turn, `CC(C)n1nc(-c2ccc(OC3CCN(C4CCC4)CC3)nc2)ccc1=O` [Example 145, 6-[6-(1-Cyclobutyl-piperidin-4-yloxy)-pyridin-3-yl]-2-isopropyl-2H-pyridazin-3-one] registered a melting point of 113 to 115 °C. Also, on human H3 receptor, the Ki is 0.1 to 100 nM. The Ki in data set [1] was 0.1 to 100 nM.

As for `C[C@@H]1CCCN1CCCOc1ccc(-c2ccc(=O)[nH]n2)cn1` [Example 146, 6-{6-[3-((R)-2-Methyl-pyrrolidin-1-yl)-propoxy]-pyridin-3-yl}-2H-pyridazin-3-one], the melting point was 178 to 181 °C. Moreover, the Ki on human H3 receptor lay in the range of 0.1 to 100 nM. The Ki in data set [1] is 0.1 to 100 nM.

The molecule `O=c1ccc(-c2ccc(OCCCN3CCCCC3)nc2)n[nH]1` [Example 147, 6-[6-(3-Piperidin-1-yl-propoxy)-pyridin-3-yl]-2H-pyridazin-3-one] registered a melting point of 155 to 158 °C. On human H3 receptor, this molecule came in with a Ki of 0.1 to 100 nM. Besides, in data set [1], the Ki was in the range of 101 to 500 nM.

`O=C1CCC(c2ccc(OC3CCN(C4CCC4)CC3)cc2)=NN1` [Example 150, 6-[4-(1-Cyclobutyl-piperidin-4-yloxy)-phenyl]-4,5-dihydro-2H-pyridazin-3-one] yielded a melting point of 196 to 198 °C. The Ki on human H3 receptor lay within 0.1 to 100 nM. Besides, in data set [1], the Ki lay within 0.1 to 100 nM.

Take `O=C1CCC(c2ccc(OC3CCN(C4CCC4)CC3)c(F)c2)=NN1` [Example 151, 6-[4-(1-Cyclobutyl-piperidin-4-yloxy)-3-fluoro-phenyl]-4,5-dihydro-2H-pyridazin-3-one]: the melting point lay in the range of 195 to 197 °C. Also, the Ki on human H3 receptor was in the range of 0.1 to 100 nM. In data set [1], the inhibitory constant (Ki) fell in the range of 0.1 to 100 nM.

`CC1(C)CC(c2ccc(OC3CCN(C4CCC4)CC3)cc2)=NNC1=O` [Example 152, 6-[4-(1-Cyclobutyl-piperidin-4-yloxy)-phenyl]-4,4-dimethyl-4,5-dihydro-2H-pyridazin-3-one] gave a melting point of 157 to 158 °C. On human H3 receptor, the Ki fell in the range of 0.1 to 100 nM. Also, in data set [1], the Ki lay within 0.1 to 100 nM.

Regarding `CC1(C)CC(c2ccc(OC3CCN(C4CCC4)CC3)c(F)c2)=NNC1=O` [Example 153, 6-[4-(1-Cyclobutyl-piperidin-4-yloxy)-3-fluoro-phenyl]-4,4-dimethyl-4,5-dihydro-2H-pyridazin-3-one], the melting point was 147 to 149 °C. Also, the Ki at human H3 receptor lay within 0.1 to 100 nM. The Ki in data set [1] was in the range of 0.1 to 100 nM.

For `O=c1ccc(-c2ccc(OC3CCN(C4CCCC4)CC3)cc2)n[nH]1` [Example 154, 6-[4-(1-Cyclopentyl-piperidin-4-yloxy)-phenyl]-2H-pyridazin-3-one], the melting point was in the range of 211 to 213 °C. This molecule returned a Ki at human H3 receptor of 0.1 to 100 nM. Also, the Ki in data set [1] lay within 0.1 to 100 nM.

Molecule `O=c1ccc(-c2ccc(OC3CCN(C4CCC4)CC3)cc2)n[nH]1` [Example 155, 6-[4-(1-Cyclobutyl-piperidin-4-yloxy)-phenyl]-2H-pyridazin-3-one] displayed a melting point of 215 to 220 °C. On human H3 receptor, this molecule displayed a Ki of 0.1 to 100 nM. Moreover, in data set [1], the Ki lay within 0.1 to 100 nM.

In the case of `O=c1ccc(-c2ccc(OC3CCN(C4CCC4)CC3)c(F)c2)n[nH]1` [Example 156, 6-[4-(1-Cyclobutyl-piperidin-4-yloxy)-3-fluoro-phenyl]-2H-pyridazin-3-one], the melting point is 236 to 238 °C. For the same molecule, the Ki on human H3 receptor fell in the range of 0.1 to 100 nM. Further, the Ki in data set [1] was in the range of 0.1 to 100 nM.

On to `O=C1CCC(c2ccc(O[C@@H]3CCN(C4CCCCC4)C3)cc2)=NN1` [Example 159, 6-[4-((R)-1-Cyclohexyl-pyrrolidin-3-yloxy)-phenyl]-4,5-dihydro-2H-pyridazin-3-one], for which the melting point was 184 to 186 °C. Besides, the Ki at human H3 receptor is over 1000 nM. Moreover, the Ki in data set [1] was over 1000 nM.

`O=c1ccc(-c2ccc(O[C@@H]3CCN(C4CCCCC4)C3)cc2)n[nH]1` [Example 160, 6-[4-((R)-1-Cyclohexyl-pyrrolidin-3-yloxy)-phenyl]-2H-pyridazin-3-one] yielded a melting point of 200 to 202 °C. The Ki at human H3 receptor lay in the range of 101 to 500 nM. The Ki in data set [1] lay in the range of 101 to 500 nM.

`O=C1CCC(c2ccc(OC3CCN(C4CCC4)CC3)cc2)=NN1C1CCC1` [Example 163, 2-Cyclobutyl-6-[4-(1-cyclobutyl-piperidin-4-yloxy)-phenyl]-4,5-dihydro-2H-pyridazin-3-one] came in with a melting point of 120 to 123 °C. In addition, the Ki on human H3 receptor lay in the range of 0.1 to 100 nM. The inhibition constant (Ki) in data set [1] fell in the range of 0.1 to 100 nM.

Turning to `O=C1CCC(c2ccc(OC3CCN(C4CCCC4)CC3)cc2)=NN1C1CCC1` [Example 164, 2-Cyclobutyl-6-[4-(1-cyclopentyl-piperidin-4-yloxy)-phenyl]-4,5-dihydro-2H-pyridazin-3-one], the melting point is 100 to 104 °C. In addition, at human H3 receptor, the Ki lay in the range of 0.1 to 100 nM. Also, the Ki in data set [1] lay in the range of 0.1 to 100 nM.

Take `O=C1CCC(c2ccc(OC3CCNCC3)cc2)=NN1C1CCC1` [Example 165, 2-Cyclobutyl-6-[4-(piperidin-4-yloxy)-phenyl]-4,5-dihydro-2H-pyridazin-3-one]: the melting point lay in the range of 168 to 170 °C. This molecule also showed a Ki on human H3 receptor of over 1000 nM. Also, the inhibition constant Ki in data set [1] is over 1000 nM.

In turn, `O=C1CCC(c2ccc(OC3CCN(C4CCC4)CC3)cc2)=NN1CC(F)(F)F` [Example 166, 6-[4-(1-Cyclobutyl-piperidin-4-yloxy)-phenyl]-2-(2,2,2-trifluoro-ethyl)-4,5-dihydro-2H-pyridazin-3-one] had a melting point of 146 to 147 °C. This molecule also displayed an inhibition constant (Ki) on human H3 receptor of 0.1 to 100 nM. In addition, the Ki in data set [1] fell in the range of 0.1 to 100 nM.

`O=C1CCC(c2ccc(OC3CCN(C4CCCC4)CC3)cc2)=NN1CC(F)(F)F` [Example 167, 6-[4-(1-Cyclopentyl-piperidin-4-yloxy)-phenyl]-2-(2,2,2-trifluoro-ethyl)-4,5-dihydro-2H-pyridazin-3-one] yielded a melting point of 225 to 227 °C. For the same molecule, the Ki on human H3 receptor lay within 0.1 to 100 nM. Further, in data set [1], the Ki lay in the range of 0.1 to 100 nM.

`C[C@@H]1CCCN1CCCOc1ccc(C2=NN(CC(F)(F)F)C(=O)CC2)cc1` [Example 168, 6-{4-[3-((R)-2-Methyl-pyrrolidin-1-yl)-propoxy]-phenyl}-2-(2,2,2-trifluoro-ethyl)-4,5-dihydro-2H-pyridazin-3-one]: the melting point is 76 to 78 °C. Further, the Ki at human H3 receptor lay in the range of 0.1 to 100 nM. In data set [1], the Ki is 0.1 to 100 nM.

On to `O=C1CCC(c2ccc(OCCCN3CCCCC3)cc2)=NN1CC(F)(F)F` [Example 169, 6-{4-[3-piperidin-1-yl-propoxy]-phenyl}-2-(2,2,2-trifluoro-ethyl)-4,5-dihydro-2H-pyridazin-3-one], for which the melting point lay in the range of 87 to 89 °C. In addition, the Ki on human H3 receptor fell in the range of 0.1 to 100 nM. For the same molecule, in data set [1], the Ki lay within 0.1 to 100 nM.

For the molecule `C[C@@H]1CCCN1CCCOc1ccc(-c2ccc(=O)n(CC(F)(F)F)n2)cc1` [Example 170, 6-{4-[3-((R)-2-Methyl-pyrrolidin-1-yl)-propoxy]-phenyl}-2-(2,2,2-trifluoro-ethyl)-2H-pyridazin-3-one], the melting point lay within 121 to 123 °C. The molecule further came in with a Ki on human H3 receptor of 0.1 to 100 nM. In addition, the Ki in data set [1] fell in the range of 0.1 to 100 nM.

Turning to `O=c1ccc(-c2ccc(OCCCN3CCCCC3)cc2)nn1CC(F)(F)F` [Example 171, 6-[4-(3-Piperidin-1-yl-propoxy)-phenyl]-2-(2,2,2-trifluoro-ethyl)-2H-pyridazin-3-one], the melting point was 128 to 130 °C. Moreover, the Ki at human H3 receptor is 0.1 to 100 nM. The Ki in data set [1] lay within 0.1 to 100 nM.

`C[C@@H]1CCCN1CCCOc1ccc(C2=NNC(=O)C3CCC23)cc1` (stereo partly drawn) [Example 173, 5-{4-[3-((R)-2-Methyl-pyrrolidin-1-yl)-propoxy]-phenyl}-3,4-diaza-bicyclo[4.2.0]oct-4-en-2-one] returned a melting point of 218 to 220 °C. Moreover, the inhibition constant (Ki) at human H3 receptor is 0.1 to 100 nM. Further, in data set [1], the Ki fell in the range of 0.1 to 100 nM.

On to `O=C1NN=C(c2ccc(OC3CCN(C4CCC4)CC3)cc2)C2CCCC12` (stereo not drawn) [Example 174, 4-[4-(1-Cyclobutyl-piperidin-4-yloxy)-phenyl)-2,4a,5,6,7,7a-hexahydro-cyclopenta[d]pyridazin-1-one], for which the melting point was > 255 °C (dec.). Also, on human H3 receptor, the Ki was in the range of 0.1 to 100 nM. Besides, the Ki in data set [1] lay within 0.1 to 100 nM.

In turn, `C[C@@H]1CCCN1CCCOc1ccc(C2=NNC(=O)C3CCCC23)cc1` (stereo partly drawn) [Example 175, 4-{4-[3-((R)-2-Methyl-pyrrolidin-1-yl)-propoxy]-phenyl}-2,4a,5,6,7,7a-hexahydro-cyclopenta[d]pyridazin-1-one] yielded a melting point of 218 to 219 °C. For the same molecule, the Ki at human H3 receptor lay within 0.1 to 100 nM. In addition, in data set [1], the Ki fell in the range of 0.1 to 100 nM.

As for `O=c1[nH]nc(-c2ccc(OC3CCN(C4CCC4)CC3)cc2)c2c1CCC2` [Example 176, 4-[4-(1-Cyclobutyl-piperidin-4-yloxy)-phenyl]-2,5,6,7-tetrahydro-cyclopenta[d]pyridazin-1-one], the melting point lay in the range of 210 to 213 °C. Further, on human H3 receptor, the Ki fell in the range of 0.1 to 100 nM. Further, the Ki in data set [1] is 0.1 to 100 nM.

The molecule `O=C1CCC(c2ccc(OC3CCN(C4CCC4)CC3)nc2)=NN1C1CCC1` [Example 177, 2-Cyclobutyl-6-[6-(1-cyclobutyl-piperidin-4-yloxy)-pyridin-3-yl]-4,5-dihydro-2H-pyridazin-3-one] registered a melting point of 146 to 149 °C. In addition, on human H3 receptor, the Ki was 0.1 to 100 nM. Besides, in data set [1], the Ki lay within 0.1 to 100 nM.

The record behind these values is patent US8586588B2, “Aryl pyridazinone derivatives and their use as H3 receptor ligands” (Cephalon, Inc., priority 2006, dated 2013).
